Like-named read-outs stand apart in the source and are kept apart here.
What was measured:
Mycobacterium smegmatis = assay: M. smegmatis growth inhibition assay; assay type: cell-based
HEK293 cells = assay: HEK293 cell growth inhibition assay; assay type: cell-based, human; conditions: HEK293 cell growth inhibition ED50, 24 hr incubation
B. anthracis Sterne = assay type: cell-based, Bacillus anthracis; conditions: B. anthracis Sterne growth inhibition
B. subtilis = B. subtilis growth inhibition assay; assay type: cell-based, Bacillus subtilis
S. aureus = S. aureus growth inhibition assay; assay type: cell-based, Staphylococcus aureus; conditions: S. aureus growth inhibition

| Compound | Ms ED50 (Mycobacterium smegmatis; 48 hours) [µg/mL] | Ms ED50 (Mycobacterium smegmatis; value in parentheses) [µM] | HEK 293 (HEK293 cells) [µg/mL] | HEK 293 (HEK293 cells; value in parentheses) [µM] | Ba ED50 (B. anthracis Sterne) [µg/mL] | Ba ED50 (B. anthracis Sterne; value in parentheses) [µM] | Bs ED50 (B. subtilis; 12 hours) | Bs ED50 (B. subtilis; value in parentheses) [µM] | Sa ED50 (S. aureus) [µg/mL] | Sa ED50 (S. aureus; value in parentheses) [µM] |
| --- | --- | --- | --- | --- | --- | --- | --- | --- | --- | --- |
| CC(C)CCCC(C)CCCn1cc[n+](CC(P(=O)([O-])O)P(=O)(O)O)c1 (centres unmarked) [Compound 75, Hydrogen(2-(1-(4,8-dimethylnonyl)-1H-imidazol-3-ium-3-yl)-1-phosphonoethyl) phosphonate] | 1.4 | 3.4 | 181 | 440 | 1.8 | 4.4 | 1.7 µg/mL | 4.1 | 26 | 63 |
| CC(C)CCCC(C)CCOc1cccc(NCC(P(=O)(O)O)P(=O)(O)O)n1 (centres unmarked) [Compound 92, (2-((6-((3,7-Dimethyloctyl)oxy)pyridin-2-yl)amino)ethane-1,1-diyl)bis(phosphonic acid)] | 200 | 460 |  |  | 4.2 | 9.6 | 75 µg/mL | 170 | 60 | 140 |
| CC(C)CCCC(C)CCc1csc(NCC(P(=O)(O)O)P(=O)(O)O)n1 (centres unmarked) [Compound 86, (2-((4-(3,7-Dimethyloctyl)thiazol-2-yl)amino)ethane-1,1-diyl)bis(phosphonic acid)] | 150 | 350 |  |  | 5.0 | 12 | 8.3 µg/mL | 19 | 23 | 54 |
| CC(C)CCCC(C)CCc1ccc[n+](CC(P(=O)([O-])O)P(=O)(O)O)c1 (centres unmarked) [Compound 102, Hydrogen (2-(3-(3,7-dimethyloctyl)pyridin-1-ium-1-yl)-1-phosphonoethyl) phosphonate] |  |  |  |  |  |  | 1.9 µg/mL |  |  |  |
| CC(C)=CCC/C(C)=C/Cc1ccc[n+](CC(P(=O)([O-])O)P(=O)(O)O)c1 (centres unmarked) [Compound 103, 3-[(2E)-3,7-dimethylocta-2,6-dien-1-yl]-1-(2-hydrogenphosphonato-2-phosphonoethyl)pyridin-1-ium] |  |  |  |  |  |  | ~ 9.2 μg/mL |  |  |  |
| CC(C)CCCC(C)c1cnc(NCC(P(=O)(O)O)P(=O)(O)O)s1 (centres unmarked) [Compound 94, (2-((5-(6-Methylheptan-2-yl)thiazol-2-yl)amino)ethane-1,1-diyl)bis(phosphonic acid)] | 96 | 240 |  |  | 11 | 28 | 100 µg/mL | 250 | 56 | 140 |
| O=P(O)(O)C(CNc1nccs1)P(=O)(O)O [Compound 93] | 290 | 1000 |  |  | 2.3 | 8.0 | 97 µg/mL | 340 | 230 | 800 |
| CC(C)CCCC(C)CCSc1cc[n+](CC(P(=O)([O-])O)P(=O)(O)O)cc1 (centres unmarked) [Compound 85, Hydrogen(2-(4-((3,7-dimethyloctyl)thio)pyridin-1-ium-1-yl)-1-phosphonoethyl) phosphonate] | 70 | 160 | 440 | 1000 | 1.1 | 2.5 | 7.0 µg/mL | 16 | 31 | 71 |
| CC(C)CCCC(C)CCc1cnc(NCC(P(=O)(O)O)P(=O)(O)O)s1 (centres unmarked) [Compound 88, (2-((5-(3,7-Dimethyloctyl)thiazol-2-yl)amino)ethane-1,1-diyl)bis(phosphonic acid)] | 150 | 350 |  |  | 7.4 | 17 | 21 µg/mL | 49 | 36 | 84 |
| CCCCCCCCCCCCCc1ccc[n+](CC(P(=O)([O-])O)P(=O)(O)O)c1 (centres unmarked) [Compound 83, Hydrogen (1-phosphono-2-(3-tridecylpyridin-1-ium-1-yl)ethyl)phosphonate] | 7.2 | 16 | 22 | 48 | 2.2 | 4.9 | 5.5 µg/mL | 12 | 30 | 67 |
| CC(C)CCCC(C)CCNc1ccc[n+](CC(P(=O)([O-])O)P(=O)(O)O)c1 (centres unmarked) [Compound 78, Hydrogen(2-(3-((3,7-dimethyloctyl)amino)pyridin-1-ium-1-yl)-1-phosphonoethyl) phosphonate] | 5.5 | 13 | 186 | 440 | 0.8 | 1.9 | 2.4 µg/mL | 5.7 | 13 | 31 |
| (((6-(4,8-Dimethylnonyl)pyridin-2-yl)amino)methylene)bis(phosphonic acid) [Compound 89] | 93 | 210 | 480 | 1100 | 3.0 | 6.9 | 26 µg/mL | 60 | 32 | 73 |
| CC(C)CCCC(C)CCOc1ccnc(NC(P(=O)(O)O)P(=O)(O)O)c1 (centres unmarked) [Compound 95, (((4-((3,7-Dimethyloctyl)oxy)pyridin-2-yl)amino)methylene)bisphosphonic acid] | 79 | 160 | 630 | 1300 | 2.5 | 5.2 | 110 µg/mL | 230 | 69 | 140 |
| CC(C)CCCC(C)CCCC(C)CCCC(C)CCOc1ccc[n+](CC(P(=O)([O-])O)P(=O)(O)O)c1 (centres unmarked) [Compound 97, Hydrogen(1-phosphono-2-(3-((3,7,11,15-tetramethylhexadecyl)oxy)pyridin-1-ium-1-yl)ethyl)phosphonate] | 210 | 370 |  |  | 7.7 | 14 | 260 µg/mL | 460 | 25 | 44 |
| CC(C)CCCC(C)CCCC(C)CCOc1ccc[n+](CC(P(=O)([O-])O)P(=O)(O)O)c1 (centres unmarked) [Compound 90, Hydrogen(1-phosphono-2-(3-((3,7,11-trimethyldodecyl)oxy)pyridin-1-ium-1-yl)ethyl) phosphonate] | 91 | 180 |  |  | 5.0 | 10 | 36 µg/mL | 73 | 22 | 45 |
| CC(C)CCCC(C)CCn1cc[n+](CC(P(=O)([O-])O)P(=O)(O)O)c1 (centres unmarked) [Compound 82, Hydrogen(2-(1-(3,7-dimethyloctyl)-1H-imidazol-3-ium-3-yl)-1-phosphonoethyl) phosphonate] | 15 | 38 | 170 | 420 | 4.3 | 11 | 4.6 µg/mL | 12 | 34 | 86 |
| CC(C)CCCC(C)CCSc1ccc[n+](CC(P(=O)([O-])O)P(=O)(O)O)c1 (centres unmarked) [Compound 79, Hydrogen(2-(3-((3,7-dimethyloctyl)thio)pyridin-1-ium-1-yl)-1-phosphonoethyl) phosphonate] | 6.2 | 14 | 224 | 510 | 0.4 | 0.9 | 2.8 µg/mL | 6.4 | 18 | 41 |
| CC(C)CCCC(C)CCOc1cc(NCC(P(=O)(O)O)P(=O)(O)O)ccn1 (centres unmarked) [Compound 87, (2-((2-((3,7-Dimethyloctyl)oxy)pyridin-4-yl)amino)ethane-1,1-diyl)bis(phosphonic acid)] | 75 | 170 | 530 | 1200 | 3.2 | 7.3 | 21 µg/mL | 48 | 35 | 80 |
| CC(C)CCCC(C)CCOc1ccnc(NCC(P(=O)(O)O)P(=O)(O)O)c1 (centres unmarked) [Compound 96, (2-((4-((3,7-Dimethyloctyl)oxy)pyridin-2-yl)amino)ethane-1,1-diyl)bis(phosphonic acid)] | 100 | 240 |  |  | 11 | 26 | 180 µg/mL | 420 | 52 | 120 |
| CC(C)CCOc1ccc[n+](CC(P(=O)([O-])O)P(=O)(O)O)c1 (centres unmarked) [Compound 91, Hydrogen (2-(3-(isopentyloxy)pyridin-1-ium-1-yl)-1-phosphonoethyl)phosphonate] | 65 | 180 |  |  | 8.6 | 24 | 41 µg/mL | 120 | 17 | 48 |
